According to patent US20040235722A1, “Epf receptor assays, compounds and therapeutic compositions” (priority 2001, published 2004):
“And” between values parts separate entries of the source, which are not always exact repeats. Identical values can stand only once. Like-named read-outs stand apart in the source and are kept apart here. One block for each molecule: values may come before it. Where no end group is shown, it is not given here.

Assays:
hDRR4 [1] = biological target: T1, hDRR4 (Homo sapiens, UniProt Q96LB2); test: FLIPR calcium assay, HEK293 cells transiently co-transfected with hDRR4 and Gα16; format: cell-based; design: The full length reading frame was inserted into the mammalian expression vector pcDNA3; expressed in transfected cells; host or cells: HEK293
T1 sequence (Q96LB2 whole entry): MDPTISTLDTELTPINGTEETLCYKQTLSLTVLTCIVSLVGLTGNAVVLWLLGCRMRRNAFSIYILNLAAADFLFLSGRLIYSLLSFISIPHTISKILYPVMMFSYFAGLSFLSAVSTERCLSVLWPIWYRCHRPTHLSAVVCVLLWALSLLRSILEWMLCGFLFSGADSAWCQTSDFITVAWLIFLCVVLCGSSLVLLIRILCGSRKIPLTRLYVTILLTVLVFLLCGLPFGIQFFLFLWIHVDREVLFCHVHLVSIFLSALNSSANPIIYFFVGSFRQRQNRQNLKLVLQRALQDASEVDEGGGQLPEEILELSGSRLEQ
Description: (§1) The hDRR4 expression plasmid or the hDRR7 expression plasmid was transiently co-transfected with a Gα16-pcDNA3 contruct using the FuGENE 6 reagent (Roche Molecular Biochemicals, Mannheim, Germany) into HEK293 cells. The cells were loaded with Fluo-4 (Molecular Probes, Eugene, Oreg., U.S.A.) according to the recommendations of the supplier. Subsequently the cells were assayed in the FLIPR instrument (Molecular Devices, Sunnyvale, Calif., U.S.A.) for Ca^2+ transients.
(§2) Activation of orphan GPCR hDRR4 (SEQ ID NO:2) by the hDRR binding fragment of EPF (SEQ ID NO:8) at a test concentration of 150 nM was measured in Hek293 cells co-transfected with Gα16-pcDNA. Relative fluorescence units (RFU) were determined by loading the cells with Fluo-4 (Molecular Probes, Eugene, Oreg., U.S.A.).
(§3) The hDRR4 expression plasmid or the hDRR7 expression plasmid was transiently co-transfected with a Gα16-pcDNA3 construct using the FuGENE 6 reagent (Roche Molecular Biochemicals, Mannheim, Germany) into HEK293 cells. The cells were loaded with Fluo4 (Molecular Probes, Eugene, Oreg., U.S.A.) according to the recommendations of the supplier. Subsequently the cells were assayed in the FLIPR instrument (Molecular Devices, Sunnyvale, Calif., U.S.A.) for Ca^2+ transients.
(§4) The purified peptides or dried tissue fractions were dissolved in calcium buffer and loaded onto regular multi-well 96 plates. Subsequently the cells were assayed in the FLIPR instrument (Molecular Devices, Sunnyvale, Calif., U.S.A.) for Ca^2+ transients. For the EPF-related peptides the following pEC50 values were determined;

hDRR4 [2] = biological target: T1, hDRR4; test: [3H]Adenine binding to membranes of hDRR4 transfected cells; conditions: tritiated adenine
Description: (§5) The membranes were prepared as total particulate fractions. The cell lines were cultured to 90% confluency on 145 mm petri dishes and treated with 5 mM sodium butyrate, 24 hours before collection. The culturing medium was removed and the cells were washed twice with ice-cold phosphate-buffered saline (PBS w/o Ca^2+ and Mg^2+), scraped from the plates in 50 mM Tris-HCl buffer, pH 7.4, and collected by centrifugation (10 minutes at 16,000 RPM at 4° C.). The cell pellet was re-suspended in hypotonic 5 mM Tris-HCl buffer, pH 7.4, and homogenized with an Ultra Turrax homogenizer. The homogenate was centrifuged at 18,000 RPM for 20 minutes at 4° C. The final pellet was re-suspended in 50 mM Tris-HCl buffer, pH 7.4 and stored in aliquots at −70° C. A protein determination was performed using the Bradford protein assay (Biorad) using bovine serum albumin (BSA) as standard.
(§6) [^3H]Adenine binding experiments were performed to characterize transiently transfected cell lines. Membranes were thawed on ice and diluted in 50 mM HEPES buffer, pH 7.4 supplemented with 10 mM MgCl2 and 1 mM EGTA. […] Samples were counted in a β-scintillation counter after at least 6 hours to permit the glass fiber filters to become uniformly translucent. […]
(§7) Specific binding was calculated as difference between counts in the presence and absence of 1 μM unlabeled adenine.

[3] = biological target: T2, GPCR RC56.3.1 (adenine receptor) (Rattus norvegicus, UniProt Q7TN49); test: [3H]Adenine binding to RC56.1.3 transfected cells; conditions: tritiated adenine
T2 construct: expressed in transfected cells; host or cells: COS cells (membranes)
T2 sequence (Q7TN49 1-304): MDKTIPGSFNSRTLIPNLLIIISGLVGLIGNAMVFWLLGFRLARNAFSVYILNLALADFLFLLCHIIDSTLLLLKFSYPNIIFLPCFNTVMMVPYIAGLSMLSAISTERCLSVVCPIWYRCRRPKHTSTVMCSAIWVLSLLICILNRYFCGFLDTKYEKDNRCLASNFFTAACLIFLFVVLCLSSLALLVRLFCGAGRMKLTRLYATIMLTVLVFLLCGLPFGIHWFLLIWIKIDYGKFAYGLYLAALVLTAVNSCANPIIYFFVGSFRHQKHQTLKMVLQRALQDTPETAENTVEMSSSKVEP
Description: as §5, §6, §7

hDRR7 receptor = biological target: T3, hDRR7 receptor (Homo sapiens, UniProt Q96LB1); test: FLIPR calcium assay, HEK293 cells transiently co-transfected with hDRR7 and Gα16; format: cell-based; conditions: for EC50: MrgX2 taken as hDRR7, FLIPR Ca2+ transients (FIG. 10), read-out: MrgX2 (pEC50) (converted)
T3 construct: expressed in transfected cells; host or cells: HEK293
T3 sequence (Q96LB1 1-330): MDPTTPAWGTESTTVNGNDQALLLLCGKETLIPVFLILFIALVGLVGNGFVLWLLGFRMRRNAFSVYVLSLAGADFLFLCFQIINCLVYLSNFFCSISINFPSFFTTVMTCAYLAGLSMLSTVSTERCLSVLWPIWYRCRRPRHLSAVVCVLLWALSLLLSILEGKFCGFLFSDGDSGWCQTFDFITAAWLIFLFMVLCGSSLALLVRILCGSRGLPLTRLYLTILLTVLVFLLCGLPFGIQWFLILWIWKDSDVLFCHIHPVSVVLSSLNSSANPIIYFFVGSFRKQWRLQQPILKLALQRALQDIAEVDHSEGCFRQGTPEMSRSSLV
Description: as §1
The hDRR7 expression plasmid was transiently co-transfected with a Gα16-pcDNA3 contruct using the FuGENE 6 reagent (Roche Molecular Biochemicals, Mannheim, Germany) into HEK293 cells. The cells were loaded with Fluo-4 (Molecular Probes, Eugene, Oreg., U.S.A.) according to the recommendations of the supplier. Subsequently the cells were assayed in the FLIPR instrument (Molecular Devices, Sunnyvale, Calif., U.S.A.) for Ca^2+ transients.
(§8) Activation of orphan GPCR hDRR7 (SEQ ID NO:12) by the HDRR binding fragment of EPF (SEQ ID NO: 8) at a test concentration of 150 nM after transient co-transfection with Gα16-pcDNA into HEK293 cells. Relative fluorescence units (RFU) were determined by loading the cells with Fluo-4 (Molecular Probes, Eugene, Oreg., U.S.A.).
as §3, §4

[4] = test system: Hek 293 cells only transfected with the Gα16-pcDNA expression vector; test: FLIPR calcium assay, control cells without receptor; format: cell-based, human; conditions: test concentration 150 nM, no hDRR receptor (FIG. 3, FIG. 4)
Description: as §1, §2, §8

hDRR4 [5] = biological target: T1, hDRR4; test: Stimulation of hDRR4 with angiotensin II and III (re-test of WO 99/32519); conditions: claimed in WO 99/32519; re-examined by present inventors
[6] = biological target: T4, human Dorsal Root Receptor 7 (hDRR7) (human, UniProt Q96LB1 1-330); test: cell-based or functional assay
T4 sequence: T3 sequence (Q96LB1 1-330)

[7] = biological target: T5, human Dorsal Root Receptor 4 (hDRR4) (human, UniProt Q96LB2 1-322); test: cell-based or functional assay
T5 sequence (Q96LB2 whole entry): as the sequence (Q96LB2 whole entry) above

[8] = biological target: T4, human Dorsal Root Receptor 7 (hDRR7); test: cell-based or functional assay; remark: listed apart in the source
[9] = biological target: T5, human Dorsal Root Receptor 4 (hDRR4); test: cell-based or functional assay; remark: listed apart in the source
[10] = MrgX1 = hDRR4, FLIPR Ca2+ transients (FIG. 9), read-out: MrgX1 (pEC50) (converted)

Molecule: Nc1ncnc2nc[nH]c12 [adenine]
- Specific response on hDRR4 in FLIPR-based cellular assay (hDRR4 [1]; HEK293 with and without co-transfection of chimeric G proteins or Gα16): no specific response
- Specific adenine binding to hDRR4 (hDRR4 [2]): no specific adenine binding
- Specific adenine binding to RC56.1.3 transfected cells [3]: clear specific adenine binding

Molecule: AFRKFLPLFDRVLVERSA [SEQ ID NO:8, AFRKFLPLFDRVLVERSA]
- EC50 (hDRR4 [1]; FLIPR calcium assay, different test concentrations (FIG. 7), read-out: EC50-value on hDRR4 receptor): 10.6 to 12 nM and 12 nM
- Activation of hDRR4 (relative fluorescence units) (hDRR4 [1]; test concentration 150 nM, Fluo-4 (FIG. 3)): Activation
- Activation of hDRR7 (relative fluorescence units) (hDRR7 receptor; test concentration 150 nM, Fluo-4 (FIG. 4)): Activation
- Response of cells transfected with Gα16 only [4]: did not response

Molecule: LGQAFRKFLPLFDRVL [EPF 1-16, LGQAFRKFLPLFDRVL]
- EC50 (hDRR4 [1]; [10]): 15.1 nM
- EC50 (hDRR7 receptor): 873 nM

Molecule: LGQAFRKFLPLFDRVLVE [EPF 1-18, LGQAFRKFLPLFDRVLVE]
- EC50 (hDRR4 [1]; [10]): 99.3 nM
- EC50 (hDRR7 receptor): 820 nM

B1: EPF 1-16 (LGQAFRKFLPLFDRVL, SEQ ID NO: 21) (peptide)
peptide: LGQAFRKFLPLFDRVL
- pEC50, FLIPR Ca2+ transients [6]: 6.06 pEC50
- pEC50, FLIPR Ca2+ transients [7]: 7.82 pEC50

B3: EPF 1-18 (LGQAFRKFLPLFDRVLVE, SEQ ID NO: 19) (peptide)
peptide: LGQAFRKFLPLFDRVLVE
- pEC50, FLIPR Ca2+ transients [6]: 6.09 pEC50
- pEC50, FLIPR Ca2+ transients [7]: 7 pEC50

Next, values leading:

- Stimulation of hDRR4 by angiotensin (angiotensin receptor characterization) (hDRR4 [5]): could not be confirmed
Molecule: angiotensin II (DRVYIHPF; Angiotensin-2; UniProt P01019 25-32, looked up)

- Stimulation of hDRR4 by angiotensin (angiotensin receptor characterization) (hDRR4 [5]): could not be confirmed
Molecule: angiotensin III

- EC50-value, FLIPR calcium assay [8]: 354 nM
- EC50-value [9]: 10.6 nM and 6 to 12 nM
- EC50-value, FLIPR calcium assay [9]: 12 nM
B2: hDRR binding fragment of EPF (SEQ ID NO:8) (peptide)
peptide: AFRKFLPLFDRVLVERSA
